The record followed here is BindingDB's records for doi:10.1021/cb600311v (University of California San Francisco, 2006).

For test [1], the target named is T1, Thyroid hormone receptor alpha (Homo sapiens, UniProt P10827).
T1 sequence (P10827 whole entry): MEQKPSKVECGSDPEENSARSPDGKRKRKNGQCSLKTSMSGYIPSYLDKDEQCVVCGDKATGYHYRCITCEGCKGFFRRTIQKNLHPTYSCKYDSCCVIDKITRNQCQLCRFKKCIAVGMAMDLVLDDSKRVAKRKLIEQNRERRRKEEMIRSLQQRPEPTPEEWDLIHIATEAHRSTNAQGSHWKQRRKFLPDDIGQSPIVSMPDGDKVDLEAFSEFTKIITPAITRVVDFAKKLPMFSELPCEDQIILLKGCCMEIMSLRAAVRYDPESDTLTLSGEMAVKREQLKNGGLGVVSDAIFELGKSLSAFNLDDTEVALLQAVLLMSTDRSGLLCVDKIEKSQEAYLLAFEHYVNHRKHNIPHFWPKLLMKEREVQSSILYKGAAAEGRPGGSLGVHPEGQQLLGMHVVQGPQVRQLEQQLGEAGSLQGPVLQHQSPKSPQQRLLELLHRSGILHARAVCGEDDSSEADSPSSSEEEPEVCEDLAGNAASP
The test is described as follows: Transactivation Assay in U2OS cells. The source says: TRE-driven dual-luciferase reporter assay in human bone osteosarcoma epithelial (U2OS) cell line.

For test [2], the target named is T1, Thyroid hormone receptor alpha. Put plainly: Competition Binding Assay. An excerpt: (§1) Thyroid hormone competitive binding assay using TNT T7 quick-coupled transcription translation system from promega.
The target of test [3] is T2, Thyroid hormone receptor beta (Homo sapiens, UniProt P10828).
T2 sequence (P10828 whole entry): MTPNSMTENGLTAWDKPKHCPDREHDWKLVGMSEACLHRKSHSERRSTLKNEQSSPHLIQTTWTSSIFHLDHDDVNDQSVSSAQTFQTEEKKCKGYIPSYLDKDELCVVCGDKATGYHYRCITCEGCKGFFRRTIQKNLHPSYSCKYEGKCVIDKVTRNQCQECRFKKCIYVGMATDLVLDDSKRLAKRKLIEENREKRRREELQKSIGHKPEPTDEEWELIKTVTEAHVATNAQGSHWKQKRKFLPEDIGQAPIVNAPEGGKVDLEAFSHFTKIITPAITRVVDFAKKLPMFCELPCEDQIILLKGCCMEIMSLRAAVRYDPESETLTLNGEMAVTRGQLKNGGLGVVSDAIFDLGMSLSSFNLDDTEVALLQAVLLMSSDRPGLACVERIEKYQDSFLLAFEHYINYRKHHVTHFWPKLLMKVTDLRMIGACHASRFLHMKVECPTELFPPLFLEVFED
Put plainly: Competition Binding Assay.
Description: as §1

A word on the EC50: it is the concentration needed to bring the measured effect to its halfway point. The term Kd denotes the constant that tells how readily two partners part at equilibrium. Low readings indicate a tighter complex, high ones a looser complex. For the compound `Cc1cc(Cc2[nH]c(=O)[nH]c2O)cc(C)c1Oc1ccc(O)c(C(C)C)c1` [CO22], the EC50 in test [1] came out at 3.87 µM. The Kd in test [2] was determined as 0.286 µM; in test [3], 0.28 µM.

`CC(C)c1cc(Oc2c(I)cc(Cc3[nH]c(=O)[nH]c3O)cc2I)ccc1O` registered an EC50 in test [1] of 0.034 µM. For the same compound, the dissociation constant Kd in test [2] came to 0.0012 µM; in test [3], 0.0017 µM.
